“Also recorded” adds a separate entry of the source.
Tests used:
[1] = system: BALB/c mice bearing subcutaneous Neuro2a tumors; assay: Reporter gene delivery in vivo (CPP/pLuc2, luciferase in tissues); set-up: species or system mouse; details: for tumor specificity of reporter gene induction (luciferase levels in tissues): one iv dose of CPP/pLuc2 at CR4, plasmid 0.8 mg/kg, PEGylation rate 50%, tissues 24 h after injection
Procedure: (§1) For in vivo studies, the plasmid dose was 0.8 mg/kg per animal; the pDNA was mixed with the CPP at CR 4 in MQ water, keeping the final complex volume at 100 μL. After 40‐minute incubation, 100 μL of 10% glucose was added to the complexes and injected immediately via tail vein. The luciferase encoding plasmid used in reporter gene experiments in vivo was p‐CMV‐Luc2, marked as pLuc2 in the text, which is optimized for in vivo use.
(§2) If not stated otherwise, the PEGylation rate of peptides in the CPP/pDNA complexes was 50% in all in vivo experiments.
(§3) Mouse Neuro2a and HT1080 tumor xenografts were induced by resuspending 1 × 10^6 cells in 100 μL volume of ice‐cold un‐supplemented DMEM and implanting the cell suspension subcutaneously to the right flank of the mouse (Neuro2a: 4‐ to 6‐week‐old BALB/c; HT1080: Hsd:Athymic Nude‐Foxn1nu female, 4‐6 weeks old, Harlan, UK). The 4T1 orthotopic tumors were induced by injecting 5 × 10^4 cells in 50 μL of ice‐cold un‐supplemented RPMI into the fourth mammary fat pad of 4‐ to 8‐week‐old female BALB/c mice.
Twenty‐four hours after the intravenous administration of CPP/pLuc2 complexes, the mice bearing Neuro2a tumors were sacrificed by cervical dislocation and tissues were harvested and snap‐frozen on dry ice. The tissues were homogenized using Precellys®24‐Dual homogenization system (Bertin Technologies, France) and lyzed with 1 × Promega lysis buffer (Promega). Luminescence was analyzed as described in in vitro transfection methods section.

[2] = system: sc HT1080 tumors; assay: Tumor growth reduction study, HT1080 fibrosarcoma model; type: in vivo, mouse; details: nude athymic mice, sc HT1080, CPP/pshVEGF CR4, 0.8 mg/kg every other day, three doses (two iv, third ip), n = 10, compared to pshVEGF alone; Figure 3A
Procedure: as §1, §2, §3
(§4) Before treatment, the mice were assigned into six groups of 10. CPP/pshVEGF treatment for HT1080 tumor‐bearing animals was started at the first appearance of tumor growth (tumor size of approximately 100 mm^3). […] The tumor sizes were measured with calipers three times a week. […]

[3] = system: orthotopic 4T1 tumors; assay: Tumor growth reduction study, orthotopic 4T1 breast tumor model; type: in vivo, mouse; details: BALB/c mice, orthotopic 4T1, treatment from 1 day after implantation, CPP/pshVEGF CR4, 0.8 mg/kg every other day, three doses, n = 10; Figure 3B
Procedure: as §1, §2, §3, §4

[4] = system: Neuro2a cells; assay: In vitro transfection of CPP/pGL3 complexes, luciferase activity, with and without MMP-2 treatment; type: cell-based, mouse; details: CPP/pGL3 complexes CR3 incubated with MMP-2 (3.8 ng/μL) 37 °C 40 min before transfection, 24 h, Figure 1B
Procedure: CPP/pDNA nanoparticles for cell culture assays were prepared by mixing plasmid DNA (0.5 μg per well of a 24‐well plate) with CPPs, at CPP/pDNA charge ratio 3 (CR3) in MQ water with final volume of 105 μL, followed by a 40‐minute incubation at room temperature. pGL3 Control (Promega, Stockholm, Sweden) was used as the luciferase encoding plasmid since it is best suitable for in vitro use.
Twenty‐four hours before the experiment 3 × 10^4 Neuro2a cells were seeded onto 24‐well plates. Peptide/pDNA complexes at CR3 were prepared as described above. The transfection mixture was added to cells containing full media, and it made up 1/10 of the total cell medium volume during the time of transfection. Lipofectamine™ 2000 (Invitrogen, Carlsbad, CA) was used according to the manufacturer's protocol and added to the cells in serum‐containing medium. After 4‐hour incubation with the complexes, an additional 1 mL of fresh medium was added to the cells and incubated for an additional 20 hours. Thereafter, the media was removed, cells were lyzed with 100 μL 0.1% Triton X‐100 in PBS for 15 minutes at 4°C. Luciferase activity was measured using Promega's luciferase assay (Luciferase Assay System, Promega) according to the manufacturer's protocol on GLOMAX™ 96 microplate luminometer (Promega) and normalized to protein content, which was measured with the BioRad Protein Assay (Hercules, CA) according to the manufacturer's protocol.
To study the effect of MMP‐2 cleavage on transfection efficiency, active recombinant MMP‐2 enzyme (0.1 mg/mL, Calbiochem, Germany) was added to the CPP/pDNA complexes in MQ (final MMP‐2 concentration 3.8 ng/μL), and incubated at 37°C for 40 minutes prior transfection.

[5] = target: active human recombinant MMP-2 enzyme (Homo sapiens, UniProt P08253)
Procedure: Cleavage assay of MMP-2 cleavable CPPs that contain iRGD. The peptides were incubated with
The mixture was then analyzed with RP-UPLC (C18 reverse phase column, eluted with 20-
80% acetonitrile in water, 0.1% TFA). […] Enzyme digestion
products were confirmed by MALDI-ToF mass spectrometry.
Peptide cleavability by MMP-2
To assess the cleavability of iRGD-modified CPPs by MMP-2, the peptides were incubated
with recombinant MMP-2 (0.1 mg/ml, Calbiochem, Germany) in MQ water for 40 minutes at
37°C and analyzed with UPLC.

[6] = system: tumors; details: systemic reporter gene plasmid delivery; cited from earlier work
From the text: In a previous paper MMP‐activatable CPPs PepFect144 (PF144), PepFect145 (PF145), and PepFect146 (PF146) were designed, where the cell penetration ability of the CPPs was reversibly masked by attaching a PEG molecule to the C‐terminus of the peptides via an MMP‐2/‐9 cleavable linker. […] Although plasmid DNA has been successfully used in combination with small molecule therapeutics,31, 32 achieving a clinical effect by plasmid delivery ...

[7] = Heparin displacement assay (PicoGreen); type: physicochemical; details: CPP/pLuc2 CR3, 0.1 μg pDNA per well, MQ water, heparin 30 min 37 °C, 100% = naked pDNA, Figure 2B
Procedure: Accessibility of pDNA in complexes formed between pDNA and CPPs was assessed by Quant‐iT™ PicoGreen® (Thermo Fisher Scientific) assay in mQ water. CPP/pLuc2 nanoparticles at CR3 were prepared as described previously, and transferred to black 96 well plates (0.1 μg of pDNA per well). Heparin solution was added into the wells and incubated at 37°C for 30 minutes. For detection, PicoGreen® was added to the wells, and incubated for 20 minutes. Fluorescence was measured by fluorimeter (λex = 492 nm, λem = 535 nm) (SynergyMx, BioTek).

[8] = system: Neuro2a cells; details: CPP/pLuc2 CR3, 0.1 μg pDNA, 4 h at 37 °C in 50% FBS (MQ for controls), then transfection of Neuro2a cells, luciferase read-out; Figure 2A
Procedure: The stability of the CPP/pDNA nanoparticles to degradation and dissociation by components found in serum was assessed by reporter gene expression in cells after 4 hours incubation of CPP/pLuc2 complexes with 50% FBS. Complexes were formed as described previously, with 0.1 μg pDNA (CR 3), and incubated at room temperature for 40 minutes. After this, FBS (or MQ for controls) was added to the complexes, and the mixture incubated at 37°C for 4 hours (final FBS concentration 50%). For transfection, 1 × 10^4 Neuro2a cells were seeded to transparent 96‐well plates in supplemented DMEM media 24 hours before experiment. On the day of the experiment, the cells were transfected and luciferase expression analyzed as described in previous section (In vitro transfection).

Sequence of active human recombinant MMP-2 enzyme (P08253 110-660): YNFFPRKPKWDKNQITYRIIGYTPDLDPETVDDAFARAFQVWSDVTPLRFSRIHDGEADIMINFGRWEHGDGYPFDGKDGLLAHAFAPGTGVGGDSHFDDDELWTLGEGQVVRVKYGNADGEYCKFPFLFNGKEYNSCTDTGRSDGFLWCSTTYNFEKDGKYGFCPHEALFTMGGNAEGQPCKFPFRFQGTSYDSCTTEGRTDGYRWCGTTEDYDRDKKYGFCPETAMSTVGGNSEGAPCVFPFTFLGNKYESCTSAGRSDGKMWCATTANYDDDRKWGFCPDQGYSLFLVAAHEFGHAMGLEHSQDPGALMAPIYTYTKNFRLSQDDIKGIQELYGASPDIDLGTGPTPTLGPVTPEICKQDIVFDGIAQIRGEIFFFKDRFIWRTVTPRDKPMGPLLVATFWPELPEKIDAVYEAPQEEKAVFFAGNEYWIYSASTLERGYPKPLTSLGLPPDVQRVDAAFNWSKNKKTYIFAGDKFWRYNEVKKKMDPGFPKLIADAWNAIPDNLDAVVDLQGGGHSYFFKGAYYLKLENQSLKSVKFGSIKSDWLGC

Row | Substance | effect on tumor growth, HT1080 model [2] | tumor specificity of reporter gene induction (luciferase levels in tissues) ([1]; Figure 1C) | effect on tumor growth, 4T1 model [3] | transfection efficiency after incubation with MMP-2 enzyme (enzyme-dependent activation) [4] | tissue/tumor specificity of plasmid DNA delivery in vivo [6] | sensitivity of CPP/pDNA nanoparticles to serum treatment (transfection efficiency before and after FBS) [8] | further results
1 | C*RGDKGPDC*‐NH2 (disulfide) [iRGD, tumor‐homing peptide, αvβ3 integrin targeting ligand, reference compound] |  |  |  |  |  |  | luciferase levels in tissues on coadministration of standalone iRGD with CPP/pLuc2 nanoparticles ([1]; iRGD coadministered (molar amount equal to that of PF14) with PF144 or PF145 nanoparticles, iv, CR4, 0.8 mg/kg plasmid, 24 h, Figure 1C): high luciferase levels in spleen; also recorded: high reporter gene expression in the spleen
2 | Stearyl‐AGYLLGKLLOOLAAAALOOLL‐X‐LALGPG‐PEG1000‐C*RGDKGPDC*‐NH2 (disulfide) [PF148‐iRGD] | no effect on tumor size | unable to induce luciferase expression in any tissue | no effect on tumor size | no enzyme‐dependent activation |  |  | cleavability of the MMP-2 sensitive linker by the MMP-2 enzyme [5]: resistant to MMP‐2 degradation
3 | Stearyl‐AGYLLGKLLOOLAAAALOOLL‐X‐PLGLAG‐PEG600‐C*RGDKGPDC*‐NH2 (disulfide) [PF144‐iRGD, iRGD‐functionalized PF144] |  | decreased the tumor specificity; also recorded: reduction in tumor specificity |  | fully restored to the level of PF14 |  |  | 
4 | Stearyl‐AGYLLGKLLOOLAAAALOOLL‐X‐PLGLAG‐PEG600‐NH2 [PF144] |  |  |  |  | efficient tumor specificity; also recorded: successful in mediating tumor‐specific gene delivery | highest stability to serum and heparin treatment out of all the PEGylated peptides | resistance of pDNA in complexes to heparin displacement (relative PicoGreen fluorescence) [7]: significantly more resistant to heparin treatment than other PEGylated CPPs tested
5 | Stearyl‐AGYLLGKLLOOLAAAALOOLL‐X‐PLGLAG‐PEG1000‐C*RGDKGPDC*‐NH2 (disulfide) [PF145‐iRGD, iRGD‐functionalized PF145] | did not translate into efficient tumor treatment | preserved its tumor specificity; also recorded: minimal luciferase induction in healthy tissues | performs worse than PF144 | fully restored to the level of PF14 |  |  | reporter gene induction at different PEGylation rates ([1]; PF145-iRGD/pLuc2 CR4, 20 µg, PEGylation rates 40%, 50%, 70% (rest PF14), iv, 24 h, N=3 per group, Figure S2): 50% being the most effective of the three
6 | Stearyl‐AGYLLGKLLOOLAAAALOOLL‐X‐PLGLAG‐PEG1000‐NH2 [PF145] |  |  |  |  | successful in mediating tumor‐specific gene delivery | lowest transfection efficiency after serum treatment | 
